Measurements: ChEMBL document CHEMBL5614438, “CETZOLE Analogs as Potent Ferroptosis Inducers and Their Target Identification Using Covalent/Affinity Probes” (J Med Chem, 2024)
Blank lines part the entries; values can stand above or below the molecule they belong to. Active and inactive are the calls of the source. The rule behind the calls is not given here.

How the values were obtained:
[1] = tested on: NCI-H522; test: Cytotoxicity against human NCI-H522 cells assessed as reduction in cell viability incubated for 3 days by methylene blue staining based spectrophotometric analysis; assay type: functional; details: NCI-H522, 72 h, time 3 day
[2] = tested on: NCI-H522; test: Cytotoxicity against human NCI-H522 cells overexpressing GFP-tagged SLC7A11 assessed as reduction in cell viability incubated for 3 days by methylene blue staining based spectrophotometric analysis; assay type: functional; details: NCI-H522, 72 h, time 3 day
[3] = tested on: NCI-H522; test: Cytotoxicity against human NCI-H522 cells overexpressing GFP-tagged RV assessed as reduction in cell viability incubated for 3 days by methylene blue staining based spectrophotometric analysis; assay type: functional; details: NCI-H522, 72 h, time 3 day
[4] = tested on: HT-1080; test: Cytotoxicity against human HT-1080 cells assessed as reduction in cell viability incubated for 3 days by methylene blue staining based spectrophotometric analysis; assay type: functional; details: HT-1080, 72 h, time 3 day
[5] = tested on: U2OS; test: Cytotoxicity against human U2OS cells assessed as reduction in cell viability incubated for 3 days by methylene blue staining based spectrophotometric analysis; assay type: functional; details: 72 h, time 3 day
[6] = tested on: MDA-MB-231; test: Cytotoxicity against human MDA-MB-231 cells assessed as reduction in cell viability incubated for 3 days by methylene blue staining based spectrophotometric analysis; assay type: functional; details: MDA-MB-231, 72 h, time 3 day
[7] = tested on: NCI-H522; test: Induction of cell death in human NCI-H522 cells at 10 uM incubated for 3 to 4 hrs by live cell imaging analysis relative to control; assay type: functional; details: time 3-4 hrs
[8] = tested on: NCI-H522; test: Induction of ferroptosis in human NCI-H522 cells assessed as cell viability incubated for 3 days in presence of liproxstatin-1 by methylene blue staining based spectrophotometric analysis relative to control; assay type: functional; details: time 3 day
[9] = tested on: NCI-H522; test: Induction of ferroptosis in human NCI-H522 cells incubated for 3 days in presence of liproxstatin-1 by methylene blue staining based spectrophotometric analysis; assay type: functional, cell-based; details: time 3.0 day
[10] = tested on: NCI-H522; test: Induction of ferroptosis in human NCI-H522 cells assessed as increase in intracellular lipid peroxidation accumulation at 0.51 uM incubated for 6 hrs by C11 BODIPY 581/591 staining based flow cytometry; assay type: functional, cell-based
[11] = tested on: NCI-H522; test: Induction of ferroptosis in human NCI-H522 cells assessed as cell death at 0.51 uM incubated for 3 days by methylene blue staining based spectrophotometric analysis relative to control; assay type: functional; details: time 3 day
[12] = tested on: NCI-H522; test: Cytotoxicity against human NCI-H522 cells assessed as reduction in cell viability at 1 uM incubated for 3 days by methylene blue staining based spectrophotometric analysis; assay type: functional; details: time 3.0 day
[13] = tested on: HT-1080; test: Cytotoxicity against human HT-1080 cells assessed as reduction in cell viability at 1 uM incubated for 3 days by methylene blue staining based spectrophotometric analysis; assay type: functional; details: time 3.0 day
[14] = tested on: WI-38; test: Cytotoxicity against human WI-38 cells assessed as reduction in cell viability at 1 uM incubated for 3 days by methylene blue staining based spectrophotometric analysis; assay type: toxicity; details: wi-38, 72 h, time 3 day
[15] = tested on: MEF; test: Cytotoxicity against mouse MEF cells assessed as reduction in cell viability at 1 uM incubated for 3 days by methylene blue staining based spectrophotometric analysis; assay type: toxicity; details: 72 h, time 3 day
[16] = tested on: UO-31; test: Cytotoxicity against human UO-31 cells assessed as reduction in cell growth by measuring cell viability at 10 uM relative to control; assay type: functional
[17] = tested on: 786-0; test: Cytotoxicity against human 786-0 cells assessed as reduction in cell growth by measuring cell viability at 10 uM relative to control; assay type: functional
[18] = tested on: CCRF-CEM; test: Cytotoxicity against human CCRF-CEM cells assessed as reduction in cell growth at 10 uM; assay type: functional, cell-based
[19] = tested on: HL-60; test: Cytotoxicity against human HL-60 cells assessed as reduction in cell growth at 10 uM; assay type: functional, cell-based
[20] = tested on: K562; test: Cytotoxicity against human K562 cells assessed as reduction in cell growth at 10 uM; assay type: functional, cell-based
[21] = tested on: MOLT-4; test: Cytotoxicity against human MOLT-4 cells assessed as reduction in cell growth at 10 uM; assay type: functional, cell-based
[22] = tested on: RPMI-8226; test: Cytotoxicity against human RPMI-8226 cells assessed as reduction in cell growth at 10 uM; assay type: functional, cell-based
[23] = tested on: SR; test: Cytotoxicity against human SR cells assessed as reduction in cell growth at 10 uM; assay type: functional, cell-based
[24] = tested on: OVCAR-3; test: Cytotoxicity against human OVCAR-3 cells assessed as reduction in cell growth at 10 uM; assay type: functional, cell-based
[25] = tested on: OVCAR-4; test: Cytotoxicity against human OVCAR-4 cells assessed as reduction in cell growth at 10 uM; assay type: functional, cell-based
[26] = tested on: OVCAR-5; test: Cytotoxicity against human OVCAR-5 cells assessed as reduction in cell growth at 10 uM; assay type: functional, cell-based
[27] = tested on: OVCAR-8; test: Cytotoxicity against human OVCAR-8 cells assessed as reduction in cell growth at 10 uM; assay type: functional, cell-based
[28] = tested on: NCI/ADR-RES; test: Cytotoxicity against human NCI-ADR-RES cells assessed as reduction in cell growth at 10 uM; assay type: functional, cell-based
[29] = tested on: SK-OV-3; test: Cytotoxicity against human SK-OV-3 cells assessed as reduction in cell growth at 10 uM; assay type: functional, cell-based
[30] = tested on: 786-0; test: Cytotoxicity against human 786-0 cells assessed as reduction in cell growth at 10 uM; assay type: functional, cell-based
[31] = tested on: ACHN; test: Cytotoxicity against human ACHN cells assessed as reduction in cell growth at 10 uM; assay type: functional, cell-based
[32] = tested on: CAKI-1; test: Cytotoxicity against human CAKI-1 cells assessed as reduction in cell growth at 10 uM; assay type: functional, cell-based
[33] = tested on: RXF 393; test: Cytotoxicity against human RXF 393 cells assessed as reduction in cell growth at 10 uM; assay type: functional, cell-based
[34] = tested on: SN12C; test: Cytotoxicity against human SN12C cells assessed as reduction in cell growth at 10 uM; assay type: functional, cell-based
[35] = tested on: TK-10; test: Cytotoxicity against human TK-10 cells assessed as reduction in cell growth at 10 uM; assay type: functional, cell-based
[36] = tested on: UO-31; test: Cytotoxicity against human UO-31 cells assessed as reduction in cell growth at 10 uM; assay type: functional, cell-based
[37] = tested on: IGROV-1; test: Cytotoxicity against human IGROV-1 cells assessed as reduction in cell growth by measuring cell viability at 10 uM relative to control; assay type: functional
[38] = molecular target: Glucose-6-phosphate 1-dehydrogenase (Homo sapiens) (UniProt P11413); test: Inhibition of G6PD in human HCT-116 cells using G6P as substrate assessed as reduction in enzyme activity by measuring absorbance at 100 uM incubated for 20 mins followed by G6P and […]; assay type: cell-based
Chain of Glucose-6-phosphate 1-dehydrogenase (Homo sapiens) (P11413 whole entry): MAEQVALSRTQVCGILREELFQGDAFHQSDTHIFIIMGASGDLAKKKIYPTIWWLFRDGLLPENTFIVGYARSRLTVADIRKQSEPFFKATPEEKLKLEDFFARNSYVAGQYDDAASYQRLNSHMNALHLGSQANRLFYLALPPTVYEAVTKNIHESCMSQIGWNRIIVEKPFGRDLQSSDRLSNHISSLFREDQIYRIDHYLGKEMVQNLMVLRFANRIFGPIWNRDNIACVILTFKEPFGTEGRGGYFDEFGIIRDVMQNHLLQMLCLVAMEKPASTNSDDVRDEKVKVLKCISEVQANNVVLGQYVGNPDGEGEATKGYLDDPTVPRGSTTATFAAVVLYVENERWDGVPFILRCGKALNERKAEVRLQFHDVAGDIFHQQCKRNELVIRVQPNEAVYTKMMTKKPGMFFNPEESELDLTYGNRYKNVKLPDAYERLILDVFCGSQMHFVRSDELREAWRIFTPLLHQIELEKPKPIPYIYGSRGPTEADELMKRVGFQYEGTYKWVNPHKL

[39] = molecular target: Phospholipid hydroperoxide glutathione peroxidase GPX4 (Homo sapiens) (UniProt P36969); test: Inhibition of recombinant GPX4 (unknown origin) at 100 uM incubated for 60 mins followed by NADPH addition
Chain of Phospholipid hydroperoxide glutathione peroxidase GPX4 (Homo sapiens) (P36969 whole entry): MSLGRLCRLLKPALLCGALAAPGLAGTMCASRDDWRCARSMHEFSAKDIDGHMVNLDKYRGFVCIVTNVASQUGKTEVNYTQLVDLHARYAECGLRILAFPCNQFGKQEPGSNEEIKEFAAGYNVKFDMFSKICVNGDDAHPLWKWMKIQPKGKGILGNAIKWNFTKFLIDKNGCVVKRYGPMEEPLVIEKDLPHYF

[40] = molecular target: Glucose-6-phosphate 1-dehydrogenase (Homo sapiens) (UniProt P11413); test: Inhibition of G6PD in human HCT-116 cells using G6P as substrate at 100 uM incubated for 20 mins followed by G6P and […]; assay type: cell-based
[41] = molecular target: T1, Peroxiredoxin-4 (Homo sapiens) (UniProt Q13162); test: Inhibition of PRDX4 (unknown origin)
T1 sequence (whole entry): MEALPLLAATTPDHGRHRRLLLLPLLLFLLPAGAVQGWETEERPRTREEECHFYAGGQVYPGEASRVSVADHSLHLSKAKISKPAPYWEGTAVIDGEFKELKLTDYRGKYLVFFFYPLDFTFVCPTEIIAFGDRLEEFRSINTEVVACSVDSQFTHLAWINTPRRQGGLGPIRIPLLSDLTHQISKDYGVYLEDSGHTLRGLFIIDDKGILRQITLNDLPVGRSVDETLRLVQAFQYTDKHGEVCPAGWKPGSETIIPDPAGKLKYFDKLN

[42] = tested on: NCI-H522; test: Induction of ferroptosis in human NCI-H522 cells assessed as cell viability at 6.93 uM incubated for 3 days in presence of liproxstatin-1 by methylene blue staining based spectrophotometric analysis relative to control; assay type: functional; details: NCI-H522, 72 h, time 3 day, read-out: Activity
[43] = tested on: NCI-H522; test: Induction of ferroptosis in human NCI-H522 cells assessed as reduction in cell viability at 6.93 uM incubated for 3 days in presence of liproxstatin-1 by methylene blue staining based spectrophotometric analysis; assay type: functional; details: time 3.0 day
[44] = Drug localization in human HeLa cell nucleus incubated for 1 hr by TAMRA/Hoechst dye based fluorescent live cell imaging analysis; assay type: ADME, subcellular
[45] = Drug localization in human HeLa cell vacuole incubated for 1 hr by TAMRA/Hoechst dye based fluorescent live cell imaging analysis; assay type: ADME, subcellular
[46] = tested on: NCI-H522; test: Induction of ferroptosis in human NCI-H522 cells assessed as cell viability at 7.8 uM incubated for 3 days in presence of liproxstatin-1 by methylene blue staining based spectrophotometric analysis relative to control; assay type: functional; details: NCI-H522, 72 h, time 3 day, read-out: Activity
[47] = tested on: NCI-H522; test: Induction of ferroptosis in human NCI-H522 cells assessed as reduction in cell viability at 7.8 uM incubated for 3 days in presence of liproxstatin-1 by methylene blue staining based spectrophotometric analysis; assay type: functional; details: time 3.0 day

Compound: C#Cc1nc(C2=C(C)C(OC(C)=O)/C(=N/OC(C)=O)C2)cs1 (stereo not drawn)
- CC50 [1]: 170 nM
- CC50 [2]: 1590 nM
- CC50 [3]: 260 nM
- CC50 [4]: 140 nM
- CC50 [5]: 7260 nM
- CC50 [6]: 230 nM
- Activity [7]: 50%
- Activity [8]: 60%
- Activity [9]: Active
- Activity [10]: Active
- Activity [11]: ~60%
- Activity [12]: Active
- Activity [13]: Active
- Activity [14]: Toxic
- Activity [15]: Toxic
- Activity [16]: -95%
- Activity [17]: -95%
- Activity [18]: inactive
- Activity [19]: inactive
- Activity [20]: inactive
- Activity [21]: inactive
- Activity [22]: inactive
- Activity [23]: inactive
- Activity [24]: inactive
- Activity [25]: inactive
- Activity [26]: inactive
- Activity [27]: inactive
- Activity [28]: inactive
- Activity [29]: inactive
- Activity [30]: inactive
- Activity [31]: inactive
- Activity [32]: inactive
- Activity [33]: inactive
- Activity [34]: inactive
- Activity [35]: inactive
- Activity [36]: inactive
- Activity [37]: -95%
- Activity [38]: 0.18
- inhibition [39]: Active
- inhibition [40]: Active
- inhibition [41]: inactive

- Drug uptake [44]: Active
- Drug uptake [45]: Active
Compound: C#CCO/N=C1\CC(c2csc(C#C)n2)=C(C)C1O (stereo not drawn)
- CC50 [1]: 2310 nM
- CC50 [4]: 1170 nM
- CC50 [6]: 2700 nM
- viability at 6.93 µM [42]: 75%
- Activity [43]: inactive

Compound: C#CCCC(=O)Nc1ccc(C(=O)c2ccc(NC(=O)CO/N=C3\CC(c4csc(C#C)n4)=C(C)C3O)cc2)cc1 (stereo not drawn)
- CC50 [1]: 2600 nM
- CC50 [4]: 1200 nM
- CC50 [6]: 1330 nM
- viability at 7.8 µM [46]: 45%
- Activity [47]: inactive
